Assay results from patent US20230041996A1, “CALCIUM-SENSING RECEPTOR AGONIST COMPOUND AND APPLICATION THEREOF” (BEIJING TUO JIE BIOPHARMACEUTICAL CO. LTD., priority 2019, published 2023).
Read-outs that look alike come from different tables or passages of the source. Square brackets hold non-standard residues; d marks the D form. Peptide text beside a SMILES is read from it. * marks the point of attachment. dPhe(4-NO2) = N[C@H](Cc1ccc([N+](=O)[O-])cc1)C(=O)O; dPhe(4-Me) = Cc1ccc(C[C@@H](N)C(=O)O)cc1; Cys(free,S-linked) = N[C@@H](CS*)C(=O)O; dPhe(2-Cl) = N[C@H](Cc1ccccc1Cl)C(=O)O; d2Nal = N[C@H](Cc1ccc2ccccc2c1)C(=O)O; dChg = N[C@@H](C(=O)O)C1CCCCC1; dPhg = N[C@@H](C(=O)O)c1ccccc1; dTle = CC(C)(C)[C@@H](N)C(=O)O

Assays:
[1] = biological target: T1, human calcium-sensing receptor (CaSR) (Homo sapiens, UniProt P41180); experiment: Agonist activity on human calcium-sensing receptor (IP-One HTRF in stably transfected HEK293/CaSR cells); format: cell-based
T1 construct: host or cells: HEK293
T1 sequence (P41180 20-1078): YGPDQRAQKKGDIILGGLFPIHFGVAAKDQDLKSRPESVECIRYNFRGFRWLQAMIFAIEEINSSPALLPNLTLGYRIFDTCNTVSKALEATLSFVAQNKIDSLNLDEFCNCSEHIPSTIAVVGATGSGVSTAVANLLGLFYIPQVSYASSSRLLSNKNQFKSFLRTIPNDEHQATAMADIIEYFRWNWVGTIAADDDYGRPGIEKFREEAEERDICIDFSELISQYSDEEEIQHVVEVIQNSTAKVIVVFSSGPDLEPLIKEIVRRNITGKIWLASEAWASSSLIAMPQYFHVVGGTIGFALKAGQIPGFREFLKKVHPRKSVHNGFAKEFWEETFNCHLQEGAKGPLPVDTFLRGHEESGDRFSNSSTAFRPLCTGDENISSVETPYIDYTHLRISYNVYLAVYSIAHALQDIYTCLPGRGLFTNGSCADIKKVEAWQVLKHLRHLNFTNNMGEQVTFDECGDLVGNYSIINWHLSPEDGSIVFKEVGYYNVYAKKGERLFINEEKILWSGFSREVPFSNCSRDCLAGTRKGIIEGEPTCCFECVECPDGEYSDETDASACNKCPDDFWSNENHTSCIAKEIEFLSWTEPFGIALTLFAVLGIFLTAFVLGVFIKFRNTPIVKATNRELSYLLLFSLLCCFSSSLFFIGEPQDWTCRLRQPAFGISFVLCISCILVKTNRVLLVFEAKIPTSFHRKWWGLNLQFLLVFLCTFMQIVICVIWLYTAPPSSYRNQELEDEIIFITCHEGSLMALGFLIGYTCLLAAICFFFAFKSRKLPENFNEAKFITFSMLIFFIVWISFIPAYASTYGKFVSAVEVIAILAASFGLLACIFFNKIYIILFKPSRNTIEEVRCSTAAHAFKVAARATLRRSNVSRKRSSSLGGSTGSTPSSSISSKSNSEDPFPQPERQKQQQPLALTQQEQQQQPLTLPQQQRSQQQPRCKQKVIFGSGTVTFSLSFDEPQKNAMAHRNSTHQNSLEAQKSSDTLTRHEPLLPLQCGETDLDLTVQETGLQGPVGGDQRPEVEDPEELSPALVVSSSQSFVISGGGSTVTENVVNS
Description: 3.1.1 Objective: The test example is intended to measure the agonist activity of compounds 1-38 on the human calcium-sensing receptor (CaSR).
Stably transfected HEK293/CaSR cells (source: Pharmaron) were cultured in a complete medium (composition: DMEM, high glucose+10% FBS+2 mM GlutaMAX+1× Penicillin-Streptomycin+200 μg/mL Hygromycin B) and incubated at 37° C./5% CO2 till 70%-90% cell confluence. The cells were digested with TrypLE, inoculated into 384-well cell culture plates, and cultured overnight at 37° C./5% CO2. After buffer exchange, stimulation buffer (HEPES 10 mM, MgCl2 0.5 mM, KCl 4.2 mM, NaCl 146 mM, glucose 5.5 mM, LiCl 50 mM, CaCl2 1.2 mM) and various concentrations of the test example compounds were added and incubated at 37° C. for 60 min. Production of IP-One in cells was detected according to the procedures in the Cisbio IP-One Tb kit instructions. The EC50 values of various test example compounds in influencing human calcium-sensing receptor was calculated by software after the raw data of the example compounds were collected, so as to evaluate the agonist activity of the example compounds on human calcium-sensing receptor.
HTRF signal was read by an EnVision detector with an excitation wavelength of 320 nm and emission wavelengths of 620 nm and 665 nm. The signal ratio (665 nm/620 nm×10,000) was calculated and fitted non-linearly to the sample concentration in GraphPad Prism 6 using a four-parameter equation to give EC50 values of the test example compounds 1-38.

[2] = test system: rat peritoneal mast cells; experiment: In vitro histamine release in rat peritoneal mast cells (histamine ELISA); format: cell-based; details: test compound final concentration 10 μM, 15 min at 37° C., relative to PBS buffer (1.00)
Description: To evaluate the in vitro histamine release levels induced by some of the test example compounds, rat peritoneal mast cells were collected by lavaging rat peritoneum with a lavage buffer (cold HBSS+25 mM HEPES containing heparin 5 U/mL, pH 7.4). After collection, the cells were centrifuged, and the lavage buffer was discarded. The cells were resuspended and washed twice with a stimulation buffer (HBSS+25 mM HEPES+1 mM CaCl2), pH 7.4). The cells were plated at a density of 10^5 cell/well (200 μL/well) and incubated at 37° C. for 15 min with positive control compound 48/80 (final concentration: 4 μg/mL), test example compounds (final concentration: 10 μM) or vehicle control. The cells were centrifuged, and cell supernatant was collected and tested for histamine concentration according to LDN Histamine ELISA kit (BAE-1000) instructions.

[3] = HEK293/CaSR cells, IP-One production, 60 min at 37° C., CaCl2 1.2 mM, read-out: EC50 for calcium-sensing receptor

| Structure (SMILES) | EC50 [1, 3] [µM] | Relative fold of histamine release in vitro [2] | EC50 [1] [µM] |
| --- | --- | --- | --- |
| CC(=O)N[C@H](CSSC[C@H](N)C(=O)O)C(=O)N[C@@H](C(=O)N[C@H](CCCNC(=N)N)C(=O)N[C@H](CCCNC(=N)N)C(=O)N[C@H](CCCNC(=N)N)C(=O)N[C@H](C)C(=O)N[C@H](CCCNC(=N)N)C(N)=O)c1ccccc1 [Compound 1, Ac-c(C)-(D-Phg)-r-r-r-a-r-NH2] (Ac-[dC](Cys(free,S-linked))[dPhg][dR][dR][dR][dA][dR]-NH2) | 15.7 | 1.50 | – |
| CC(=O)N[C@H](CSSC[C@H](N)C(=O)O)C(=O)N[C@H](Cc1ccccc1Cl)C(=O)N[C@H](CCCNC(=N)N)C(=O)N[C@H](CCCNC(=N)N)C(=O)N[C@H](CCCNC(=N)N)C(=O)N[C@H](C)C(=O)N[C@H](CCCNC(=N)N)C(N)=O [Compound 2, Ac-c(C)-[D-Phe(2-Cl)]-r-r-r-a-r-NH2] (Ac-[dC](Cys(free,S-linked))[dPhe(2-Cl)][dR][dR][dR][dA][dR]-NH2) | 6.76 | 4.96 | – |
| CC(=O)N[C@H](CSSC[C@H](N)C(=O)O)C(=O)N[C@H](Cc1ccc(C)cc1)C(=O)N[C@H](CCCNC(=N)N)C(=O)N[C@H](CCCNC(=N)N)C(=O)N[C@H](CCCNC(=N)N)C(=O)N[C@H](C)C(=O)N[C@H](CCCNC(=N)N)C(N)=O [Compound 3, Ac-c(C)-[D-Phe(4-CH3)]-r-r-r-a-r-NH2] (Ac-[dC](Cys(free,S-linked))[dPhe(4-Me)][dR][dR][dR][dA][dR]-NH2) | 15.3 | – | – |
| CC(=O)N[C@H](CSSC[C@H](N)C(=O)O)C(=O)N[C@H](Cc1ccc(O)cc1)C(=O)N[C@H](CCCNC(=N)N)C(=O)N[C@H](CCCNC(=N)N)C(=O)N[C@H](CCCNC(=N)N)C(=O)N[C@H](C)C(=O)N[C@H](CCCNC(=N)N)C(N)=O [Compound 4, Ac-c(C)-(D-Tyr)-r-r-r-a-r-NH2] (Ac-[dC](Cys(free,S-linked))[dY][dR][dR][dR][dA][dR]-NH2) | 6.92 | 3.94 | – |
| CC(=O)N[C@H](CSSC[C@H](N)C(=O)O)C(=O)N[C@H](Cc1c[nH]c2ccccc12)C(=O)N[C@H](CCCNC(=N)N)C(=O)N[C@H](CCCNC(=N)N)C(=O)N[C@H](CCCNC(=N)N)C(=O)N[C@H](C)C(=O)N[C@H](CCCNC(=N)N)C(N)=O [Compound 5, Ac-c(C)-(D-Trp)-r-r-r-a-r-NH2] (Ac-[dC](Cys(free,S-linked))[dW][dR][dR][dR][dA][dR]-NH2) | 1.14 | 4.13 | – |
| CC(=O)N[C@H](CSSC[C@H](N)C(=O)O)C(=O)N[C@H](CO)C(=O)N[C@H](CCCNC(=N)N)C(=O)N[C@H](CCCNC(=N)N)C(=O)N[C@H](CCCNC(=N)N)C(=O)N[C@H](CO)C(=O)N[C@H](CCCNC(=N)N)C(N)=O [Compound 6, Ac-c(C)-s-r-r-r-s-r-NH2] (Ac-[dC](Cys(free,S-linked))[dS][dR][dR][dR][dS][dR]-NH2) | 11.6 | 1.65 | – |
| CC(=O)N[C@H](CSSC[C@H](N)C(=O)O)C(=O)N[C@H](Cc1c[nH]cn1)C(=O)N[C@H](CCCNC(=N)N)C(=O)N[C@H](CCCNC(=N)N)C(=O)N[C@H](CCCNC(=N)N)C(=O)NCC(=O)N[C@H](CCCNC(=N)N)C(N)=O [Compound 7, Ac-c(C)-h-r-r-r-G-r-NH2] (Ac-[dC](Cys(free,S-linked))[dH][dR][dR][dR]G[dR]-NH2) | 18.6 | 2.24 | – |
| CC(=O)N[C@H](CSSC[C@H](N)C(=O)O)C(=O)N[C@H](Cc1c[nH]c2ccccc12)C(=O)N[C@H](CCCNC(=N)N)C(=O)N[C@H](CCCNC(=N)N)C(=O)N[C@H](CCCNC(=N)N)C(=O)NCC(=O)N[C@H](CCCNC(=N)N)C(N)=O [Compound 9, Ac-c(C)-w-r-r-r-G-r-NH2] (Ac-[dC](Cys(free,S-linked))[dW][dR][dR][dR]G[dR]-NH2) | 3.16 | – | – |
| CC(=O)N[C@H](CSSC[C@H](N)C(=O)O)C(=O)N[C@H](CCCNC(=N)N)C(=O)N[C@H](CCCNC(=N)N)C(=O)N[C@H](Cc1ccc([N+](=O)[O-])cc1)C(=O)N[C@H](CCCNC(=N)N)C(=O)N[C@H](C)C(=O)N[C@H](CCCNC(=N)N)C(N)=O [Compound 14, Ac-c(C)-r-r-[D-Phe(4-NO2)]-r-a-r-NH2] (Ac-[dC](Cys(free,S-linked))[dR][dR][dPhe(4-NO2)][dR][dA][dR]-NH2) | 4.33 | – | – |
| CC(=O)N[C@H](CSSC[C@H](N)C(=O)O)C(=O)N[C@H](CCCNC(=N)N)C(=O)N[C@H](CCCNC(=N)N)C(=O)N[C@H](Cc1ccc2ccccc2c1)C(=O)N[C@H](CCCNC(=N)N)C(=O)N[C@H](C)C(=O)N[C@H](CCCNC(=N)N)C(N)=O [Compound 15, Ac-c(C)-r-r-(D-2-NaI)-r-a-r-NH2] (Ac-[dC](Cys(free,S-linked))[dR][dR][d2Nal][dR][dA][dR]-NH2) | 5.59 | – | – |
| CC(=O)N[C@H](CSSC[C@H](N)C(=O)O)C(=O)N[C@H](CCCNC(=N)N)C(=O)N[C@H](CCCNC(=N)N)C(=O)N[C@H](CCC(N)=O)C(=O)N[C@H](CCCNC(=N)N)C(=O)NCC(=O)N[C@H](CCCNC(=N)N)C(N)=O [Compound 23, Ac-c(C)-r-r-q-r-G-r-NH2] (Ac-[dC](Cys(free,S-linked))[dR][dR][dQ][dR]G[dR]-NH2) | 30.4 | – | – |
| CC(=O)N[C@H](CSSC[C@H](N)C(=O)O)C(=O)N[C@H](CCCNC(=N)N)C(=O)N[C@H](CCCNC(=N)N)C(=O)N[C@H](Cc1c[nH]cn1)C(=O)N[C@H](CCCNC(=N)N)C(=O)NCC(=O)N[C@H](CCCNC(=N)N)C(N)=O [Compound 28, Ac-c(C)-r-r-h-r-G-r-NH2] (Ac-[dC](Cys(free,S-linked))[dR][dR][dH][dR]G[dR]-NH2) | 21.5 | – | – |
| CC(=O)N[C@H](CSSC[C@H](N)C(=O)O)C(=O)N[C@H](CCCNC(=N)N)C(=O)N[C@H](CCCNC(=N)N)C(=O)N[C@@H](C(=O)N[C@H](CCCNC(=N)N)C(=O)NCC(=O)N[C@H](CCCNC(=N)N)C(N)=O)C1CCCCC1 [Compound 36, Ac-c(C)-r-r-(D-Chg)-r-G-r-NH2] (Ac-[dC](Cys(free,S-linked))[dR][dR][dChg][dR]G[dR]-NH2) | 17.9 | – | – |
| CC(=O)N[C@H](CSSC[C@H](N)C(=O)O)C(=O)N[C@H](CCCNC(=N)N)C(=O)N[C@H](CCCNC(=N)N)C(=O)N[C@@H](C(=O)N[C@H](CCCNC(=N)N)C(=O)NCC(=O)N[C@H](CCCNC(=N)N)C(N)=O)C(C)(C)C [Compound 38, Ac-c(C)-r-r-(D-Tle)-r-G-r-NH2] (Ac-[dC](Cys(free,S-linked))[dR][dR][dTle][dR]G[dR]-NH2) | 18.7 | – | – |
| CC(=O)N[C@H](CSSC[C@H](N)C(=O)O)C(=O)N[C@H](CCCNC(=N)N)C(=O)N[C@H](CCCNC(=N)N)C(=O)N[C@H](C)C(=O)N[C@H](CCCNC(=N)N)C(=O)N[C@H](C)C(=O)N[C@H](CCCNC(=N)N)C(N)=O [Etelcalcetide analogue, Ac-c(C)-r-r-a-r-a-r-NH2, reference compound] (Ac-[dC](Cys(free,S-linked))[dR][dR][dA][dR][dA][dR]-NH2) | – | – | 6.74 |
